Assay results taken from ChEMBL document CHEMBL6153098, “Immunomodulatory Potential of a Bibenzyl-dihydrophenanthrene Derivative Isolated from Calanthe cardioglossa” (J Nat Prod, 2025).
Activity calls are given as the source filed them. No cut-off for these calls is given here.

Legend:
THP-1 [1] = assay: Cytotoxicity against human THP-1 cells assessed as cell viability at 10 uM incubated for 4 hrs by PrestoBlue cell viability assay; assay type: toxicity, cell-based; details: thp-1, 4 h
THP-1 [2] = assay: Immunomodulatory activity in human THP-1 cells assessed as reduction in LPS-induced TNF-alpha production at 10 uM incubated for 4 hrs by ELISA assay; assay type: functional, cell-based
PBMC = assay: Immunomodulatory activity in multiple sclerosis pateint-derived human PBMC cells assessed as reduction in LPS-induced TNF-alpha production in CD14+ monocytes at 10 uM incubated for 4 hrs by flow cytometry assay; assay type: functional, cell-based

| SMILES | Activity (THP-1 [1]) | Activity (THP-1 [2]) | Activity (PBMC) |
| --- | --- | --- | --- |
| COc1cc(O)cc2c1-c1cc(-c3c(O)cc(OC)c4c3CCc3cc(O)ccc3-4)c(O)cc1CC2 | Non-toxic | – | – |
| COc1cc(O)cc2c1-c1ccc(O)cc1CC2 | Non-toxic | inactive | – |
| COc1cc(O)c2c(c1)CCc1cc(O)ccc1-2 | – | Active | – |
| COc1cc(O)cc(CCc2ccc(O)c(OC)c2)c1 [GIGANTOL] | Non-toxic | Active | – |
| COc1cc([C@H]2Oc3cc4c(cc3[C@@H]2CO)-c2c(cc(O)cc2OC)CC4)ccc1O | Non-toxic | – | – |
| COc1cc(O)cc(CCc2cccc(O)c2)c1 [BATATASIN III] | Non-toxic | Active | – |
| COc1cc(C2Oc3cc(OC)c4c(c3C2COC(C)=O)CCc2cc(O)ccc2-4)ccc1O (stereo unspecified) | Non-toxic | – | – |
| COc1cccc(CCc2cc(OC)cc(O)c2-c2cc3c(cc2O)CCc2cc(OC)cc(O)c2-3)c1 | Non-toxic | Active; Compound Exhibited The Most Pronounced Activity | Active |
| O=c1c2ccccc2ncn1-c1ccccc1O | Non-toxic | – | – |
| COc1cc(O)c2c(c1)CCc1cc(O)c(-c3c(O)cc(OC)c4c3CCc3cc(O)ccc3-4)cc1-2 | Non-toxic | Active | – |
